Source: patent US20030186464A1, “Surface plasmon resonance methods” (priority 2002, published 2003)
Where two headings read alike, the source gives them in different places.

Legend:
immobilized IL-2 = molecular target: T1, immobilized IL-2 (Homo sapiens, UniProt P60568); assay: Double ligand SPR on immobilized interleukin-2 (Examples 9-11); assay type: binding
T1 construct: made in house; host or cells: E. coli
Protocol: A CM5 sensor chip (Biacore-BR-1000-14) is docked in a Biacore 2000 SPR device and normalized using a standard Biacore protocol with 70% glycerol. The chip is next equilibrated in PBS for approximately 1 hr at a 20 μL/min flow rate. The dextran surface of the chip is activated through an NHS/EDC coupling. This coupling is done using an amine coupling kit (Biacore—BR-100-50) containing N-hydroxysuccinimide (NHS 11.5 mg/mL) and N-ethyl-N′-(3-dimethylaminopropyl) carbodiimide hydrochloride (EDC 75 mg/mL). First, the two reagents are mixed in a 1:1 ratio and then 35 μL of the mixture are injected at 5 μL/min. The chip is activated one flow cell at a time, and that flow cell is subsequently labeled with protein.
IL-2 is expressed in E. coli cells and purified using standard procedures. Protein is then concentrated to 100 μM and the buffer is exchanged to 100 mM MES pH 5.75 (Nap-5 column, Pierce). A sensorgram is then run over the activated flow cell at 2,L/min of PBS. The IL-2 solution is then injected at 2 μL/min for 10 min. After injection the change in RUs is measured by marking the RUs at t=0 and t=final and subtracting. This gives the total RU change, which is related to the total mass of protein successfully coupled to the CM5 surface. The total mass will later be used to determine stoichiometry of binding. This procedure is then repeated with another arbitrary protein to create a measure for nonspecific binding. The arbitrary protein is immobilized on an adjacent cell. […] The sensorgram is then altered to flow across all four cells on the CM5 chip at 5 μL/min PBS. A solution of 1 M ethanolamine hydrochloride-NaOH pH 8.5 (Amine coupling kit, Biacore-BR-100-50) is injected at 5 μL/min for 7 min. Proteins are immobilized at densities of 100-160 fmol/mm^2. The chip is equilibrated overnight in PBS+0.05% azide+2% DMSO at 20 μL/min.
In this experiment, variable concentrations of a compound are tested at a constant concentration of another compound. The compound held constant is 2c, for example (structure shown in Example 2). To determine appropriate constant concentrations for 2c, a compound titration is first performed. Dilution series of the compounds are typically performed to produce seven solutions having final compound concentrations of 30 mM, 10 mM, 3.3 mM, 1.1 mM, 0.37 mM, 0.12 mM, and 0.041 mM; an eighth solution is a DMSO-only baseline. The compounds are then diluted into PBS+0.05% azide to final concentrations of 300 μM, 100 μM, 33 μM, 11 μM, 3.7 μM, 1.2 μM, 0.41 μM. The compound solutions are injected from lowest concentration to highest at 40 μL/min for 1 min. The SPR software method includes a 1 min wash before injection, the injection and then a 3 min wash after the injection.
These dilution series are analyzed by BIAevaluation software version 3.0. Sensorgrams are plotted for compound binding to the IL-2 labeled cell of the chip. The sensorgrams are modified by subtracting the sensorgrams for the appropriate compound dilutions over cell 1 (a blank cell). This subtraction step removes any RU changes that might occur due to non-specific interactions between the compound and the chip itself or refractive changes in the buffer. Finally, the eight sensorgrams produced from the compound dilution series are zeroed at the average of their starting RUs. Then the sensorgram produced by injecting DMSO only is subtracted to reveal the final sensorgrams used to determine relative binding.
To determine KdSPR for the compound, the compound concentration is plotted on the X-axis, while the fraction bound at the plateau of the injection is plotted on the Y-axis. The curve is then analyzed via non-linear regression analysis (Kaleidagraph, Synergy Software). […] The concentration chosen is where the RUs remain constant at the top of the binding curve and thus the IL-2:2c ratio is 1. For 2c, this concentration is 100 μM.
A second compound is then run, this time in both the presence and absence of 2c. […]

[1] = molecular target: T2, human interleukin-1 receptor type 1 (Homo sapiens, UniProt P14778); assay: SPR inhibition of binding of soluble IL-1 R to an immobilized peptide ligand (Examples 12-13); details: for IC50: inhibition of binding of IL-1 R to the immobilized peptide […]
T2 construct: soluble human II-1 R was allowed to flow over the surface; made in house; host or cells: baculovirus-infected TN-5B1-4 insect cells (High Five)
T2 sequence (P14778 18-336 limits assumed): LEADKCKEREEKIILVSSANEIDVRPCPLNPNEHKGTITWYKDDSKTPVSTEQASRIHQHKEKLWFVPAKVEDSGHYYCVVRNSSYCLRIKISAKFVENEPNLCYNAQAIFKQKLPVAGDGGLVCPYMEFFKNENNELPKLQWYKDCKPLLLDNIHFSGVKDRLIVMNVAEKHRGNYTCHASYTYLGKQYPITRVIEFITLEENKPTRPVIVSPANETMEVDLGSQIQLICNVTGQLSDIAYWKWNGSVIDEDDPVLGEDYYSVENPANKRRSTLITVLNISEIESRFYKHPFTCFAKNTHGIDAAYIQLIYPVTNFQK
Protocol: A CM5 sensor chip (Biacore-BR-1000-14) is docked in a Biacore 2000 SPR device. The chip is then normalized using standard Biacore protocol with 70% glycerol. The chip is next equilibrated in PBS for approximately 1 hr at 20,L/min flow rate. The dextran surface of the chip is activated through an NHS/EDC coupling. This coupling is done using an amine coupling kit (Biacore—BR-100-50) containing N-hydroxysuccinimide (NHS 11.5 mg/mL) and N-ethyl-N′-(3-dimethylaminopropyl) carbodiimide hydrochloride (EDC 75 mg/mL). The two reagents are mixed in a 1:1 ratio and 35 μL of the mixture are injected at 5 μL/min. The activated chip is then modified with a cysteine reactive group, to enable labeling of the CM5 chip with cysteine chemistry. A solution of 100 μM MTSL in PBS is injected at 2 μL/min for 10 min over the activated cell.
A peptide that is a nanomolar inhibitor for the protein of interest was synthesized at Synpep, to include a cysteine residue at the N-terminus. This peptide was brought up to a 100 μM solution in PBS. This solution is then injected over the activated cell at 2 μL/min for 10 min. After injection one measures the change in RUs by marking the RUs at t=0 and t=final and subtracting. This gives the total RU change, which is related to the total mass of peptide successfully coupled to the CM5 surface. The sensorgram is then altered to flow across all four cells on the CM5 chip at 5 μL/min PBS. A solution of 1 M ethanolamine hydrochloride-NaOH pH 8.5 (Amine coupling kit, Biacore—BR-100-50) is injected at […] for 7 min. The peptide is immobilized at a density of 40 fmol/mm^2. The chip is equilibrated overnight in PBS+0.05% azide at 20 μL/min.
IL-1 R is expressed in baculovirus-infected TN-5B1-4 insect cells (High Five) and purified using standard procedures. To determine an appropriate constant concentration of protein to use, a protein titration is first performed. A dilution series of the protein is typically performed to produce seven protein solutions having final concentrations of from 300 nM, 100 nM, 33 nM, 11 nM, 3.7 nM, 1.2 nM, and 0.41 nM in PBS+0.05% azide, and an eighth solution is used as a PBS-only baseline. The protein solutions are injected from lowest concentration to highest at 40 μL/min for 1 min. The SPR software method includes a 1 min wash before injection, the injection and then a 3 min wash after the injection.
These dilutions series are analyzed by BIAevaluation software version 3.0. Sensorgrams are plotted for protein binding to the immobilized peptide cell. The sensorgrams are modified by subtracting the sensorgrams for the appropriate protein dilutions over cell 1 (a blank cell). This subtraction step removes any RU changes that might occur due to nonspecific interactions between the protein and the chip itself or refractive changes in the buffer. Finally, the eight sensorgrams produced from the protein dilution series are zeroed at the average of their starting RUs. Then the sensorgram produced by injecting PBS only is subtracted to reveal the final sensorgrams used to determine relative binding.
To determine KdSPR for the protein, the protein concentration is plotted on the X-axis, while the fraction bound at the plateau of the injection is plotted on the Y-axis. The curve is then analyzed via nonlinear regression analysis (Kaleidagraph, Synergy Software). […] One wants to keep protein constant and non-saturated to be assured of not having an excess of protein in solution. For this protein, 30 nM was chosen. […]

T1 sequence (P60568 21-153): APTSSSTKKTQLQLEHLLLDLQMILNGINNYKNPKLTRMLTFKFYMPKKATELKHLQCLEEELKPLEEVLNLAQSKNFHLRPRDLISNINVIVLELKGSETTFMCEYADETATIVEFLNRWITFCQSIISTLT

With `COCCNC(=O)[C@@H]1CCCN1C(=O)c1cc2ccccc2s1` [Compound 1] the Kd (immobilized IL-2; FIG. 7 sensorgrams, 0-500 μM of compound over immobilized IL-2, read-out: apparent Kd) was about 175 µM, the IC50 (immobilized IL-2; constant 50 μM of 2c, immobilized IL-2, FIG. 9, read-out: IC50 inhibiting the binding of 2c) was 185 µM and the Kd (immobilized IL-2; dose-response plot of FIG. 9, absence of 2c, read-out: Kd for binding IL-2) was 210 µM.
Compound `N=C(N)N[C@@H](C(=O)NCC(=O)N1CCC(c2cc(-c3ccc(O)cc3Cl)[nH]n2)CC1)C1CCCCC1` [Compound 16] has a Kd (immobilized IL-2; Example 11, immobilized interleukin-2, read-out: apparent Kd in SPR experiments) of 5 µM.
For `COCC(=O)NC1CSc2ccccc2C1=O` (stereo not shown) [Compound 20], the “Kd,SPR IL-2” value (immobilized IL-2; immobilized IL-2, no other compound) was “Inactive”.
`NC(=O)CC[C@H](NC(=O)[C@H](Cc1ccc(OP(=O)(O)O)cc1)NC(=O)[C@H](Cc1ccc2ccccc2c1)NC(=O)Cc1ccc(O)cc1)C(=O)N1CCN(C(=O)Cc2ccc(O)cc2)CC1` [Compound 21] showed an IC50 [1] of 10.5 µM.
With `NC(=O)c1cccc(NC(=O)CCC(=O)NCCc2c[nH]c3ccccc23)c1` [Compound 22] the IC50SPR ([1]; inhibition of binding of IL-1 R to the immobilized peptide CETPFTWEESNAYYWQPYALPL) was “Inactive”.
With `NC(=O)c1cccc(NC(=O)CCC(=O)Nc2ccc3[nH]ccc3c2)c1` [Compound 23] the IC50 [1] was 560 µM.
`NC(=O)Cc1cccc(NC(=O)c2cccc(NC(=O)c3cc4cccc(O)c4cc3O)c2)c1` [Compound 24] gave an IC50 [1] of 95 µM.
Work on `NC(=O)Cc1ccc(NC(=O)NCc2ccc(C3=CN=C(N)NC3)cc2)cc1` [Compound 25] yielded an IC50 [1] of 240 µM.
